{"source": "patent US9605047B2", "about": "“Compositions and methods for treating hypertension” (The Brigham and Women's Hospital, Inc., priority 2012, dated 2017)", "key": {"[1]": {"tested_on": "HPAECs", "experiment": "3-Nitrotyrosine immunohistochemistry in HPAECs", "type": "cell-based, human", "conditions": "V 24.1±3.3, n=5", "protocol": "3-Nitrotyrosine immunohistochemistry. Cells grown to confluence on glass chamber slides were fixed following treatments and anti-3-nitrotyrosine immunohistochemistry (Santa Cruz Biotechnology) was performed using the 3,3′-diaminobenzidine substrate method (Vector laboratories) as described previously.^1"}, "[2]": {"tested_on": "eNOS", "experiment": "eNOS activity ([14C] arginine, NOS activity kit) in HPAECs", "type": "cell-based, human", "conditions": "ET-1 (10 nM) stimulated HPAECs, without or with aldosterone; n=3", "protocol": "eNOS activity. eNOS activity was measured using the NOS activity kit (Cayman) according to the manufacturer's instructions with some modifications. Cells were washed with PBS containing 1 mM EDTA, transferred to a microcentrifuge tube, and centrifuged at 14,000×g at 4° C. for 2 min. The supernatant was decanted and homogenization buffer (250 mM Tris-HCl, pH 7.4, 6 μM BH4, 2 μM flavin adenine dinucleotide, and 2 μM flavin adenine mononucleotide) was added to the cell pellets. […] The samples were then centrifuged at 14,000×g for 30 seconds and radioactivity of the eluant was quantified in a liquid scintillation counter (Beckman-Coulter)."}, "[3]": {"tested_on": "ETB-dependent NO. generation in HPAECs", "experiment": "NO. metabolites (NO2−, NO3−) in ET-1-stimulated HPAECs", "type": "cell-based, human", "conditions": "n=3", "procedure": "Cell culture and treatments. Human pulmonary artery endothelial cells (HPAECs) (Lonza) (male donors) were grown to confluence using phenol-free EGM-2 medium supplemented with 5% fetal bovine serum at 37° C., 5% CO2. Cells were passaged twice-weekly using 0.5% trypsin/EDTA, and experiments were performed on cells from passages 4-10. Aldosterone (Steraloids) and ET-1 (1-100 nM) (Sigma-Aldrich) were dissolved in dimethylsufloxide (10 nmol/L) and deoxygenated water, respectively, which served as vehicle controls. Cells were treated with aldosterone (10^−−10^−7 mol/L) for 24 h and in selected experiments co-incubated with the mineralocorticoid receptor inhibitor spironolactone (10 μM/l) (Sigma-Aldrich).\nNO. metabolites. Nitrite (NO2^−) and nitrate (NO3^−) were measured in cell culture medium containing 2% fetal bovine serum and L-arginine (1 mmol/l) (Sigma-Aldrich) by 1(H)-naphthotriazole fluorescence (Cayman) as previously reported.^1 To measure NO2^− levels in whole lung tissue, lung specimens were harvested from rats and snap frozen in liquid nitrogen."}, "[4]": {"tested_on": "NOX4 and NOX4 subunit p22^phox", "experiment": "NOX4 and p22phox protein levels in HPAECs by Western analysis", "type": "cell-based, human", "conditions": "n=3", "protocol": "Cell culture and treatments. Human pulmonary artery endothelial cells (HPAECs) (Lonza) (male donors) were grown to confluence using phenol-free EGM-2 medium supplemented with 5% fetal bovine serum at 37° C., 5% CO2. Cells were passaged twice-weekly using 0.5% trypsin/EDTA, and experiments were performed on cells from passages 4-10. Aldosterone (Steraloids) and ET-1 (1-100 nM) (Sigma-Aldrich) were dissolved in dimethylsufloxide ([…]) and deoxygenated water, respectively, which served as vehicle controls. Cells were treated with aldosterone (10^−−10^−7 mol/L) for 24 h and in selected experiments co-incubated with the mineralocorticoid receptor inhibitor spironolactone (10 μM/l) (Sigma-Aldrich).\n(§1) Immunoblotting. Proteins were size fractionated electrophoretically using SDS-PAGE and transferred to polyvinylidene fluoride membranes. The membranes were incubated with anti-ETA (Santa Cruz Biotechnology), anti-ETB (Santa Cruz Biotechnology), anti-NOX4 (Santa Cruz Biotechnology), anti-p22P^phox (Santa Cruz), anti-eNOS (Cell Signaling), anti-PGC-1α (Santa Cruz Biotechnology), and anti-SF (Santa Cruz Biotechnology) antibodies overnight at 4° C. and visualized using the ECL detection system (Amersham Biosciences). In experiments to assess ETA expression, purified ETA protein (Novus Biological) was loaded to serve as an internal control."}, "[5]": {"tested_on": "HPAECs", "experiment": "Amplex Red assay of hydrogen peroxide levels in HPAECs", "type": "cell-based, human", "conditions": "aldosterone 10^−7 mol/L, 24 h, HPAECs; vs V 65.4±1.6; n=3", "procedure": "Human pulmonary artery endothelial cells (HPAECs) (Lonza) (male donors) were grown to confluence using phenol-free EGM-2 medium supplemented with 5% fetal bovine serum at 37° C., 5% CO2. Cells were passaged twice-weekly using 0.5% trypsin/EDTA, and experiments were performed on cells from passages 4-10. Aldosterone (Steraloids) and ET-1 (1-100 nM) (Sigma-Aldrich) were dissolved in dimethylsufloxide (10 nmol/L) and deoxygenated water, respectively, which served as vehicle controls. Cells were treated with aldosterone (10^−−10^−7 mol/L) for 24 h and in selected experiments co-incubated with the mineralocorticoid receptor inhibitor spironolactone (10 μM/l) (Sigma-Aldrich)."}, "[6]": {"tested_on": "ETB region containing Cys405", "experiment": "ETB sulfenic acid (R-SOH) by immunoprecipitation and immunoblot in HPAECs", "type": "cell-based, human", "conditions": "aldosterone 10^−7 mol/L, 24 h, vs V, n=3", "protocol": "Co-immunoprecipitation of proteins. Cell monolayers were washed twice with ice-cold PBS and incubated on ice with RIPA buffer supplemented with various protease inhibitors (Millpore). Cells were scraped with a rubber policeman and samples were rotated at 4° C. for 15 min. Lysates were centrifuged at 14,000×g at 4° C. for 15 min and the then pre-cleared with a 50% slurry of Protein G agarose beads (Santa Cruz Biotechnology) mixed with PBS. Following removal of the beads by centrifugation, cell lysates were incubated with an anti-ETB or anti-PGC-1α antibody (Santa Cruz Biotechnology) overnight at 4° C. The immunocomplex was captured by incubating lysates with 50% Protein G agarose bead slurry at 4° C. for 1 h. Beads were collected by pulse centrifugation, resuspended in non-reducing sample buffer, and then boiled for 10 min to dissociate the immunocomplex from the beads. Western analysis was performed with an anti-SF (Santa Cruz) or anti-sulfenic acid (R—SOH) antibody (Millpore) as described above."}, "[7]": {"target": "T1, ETB cysteinyl thiols (region containing Cys405) (Homo sapiens, UniProt P24530)", "T1 construct": "endogenous in cells; host or cells: HPAECs (Lonza)", "T1 sequence (P24530 27-442)": "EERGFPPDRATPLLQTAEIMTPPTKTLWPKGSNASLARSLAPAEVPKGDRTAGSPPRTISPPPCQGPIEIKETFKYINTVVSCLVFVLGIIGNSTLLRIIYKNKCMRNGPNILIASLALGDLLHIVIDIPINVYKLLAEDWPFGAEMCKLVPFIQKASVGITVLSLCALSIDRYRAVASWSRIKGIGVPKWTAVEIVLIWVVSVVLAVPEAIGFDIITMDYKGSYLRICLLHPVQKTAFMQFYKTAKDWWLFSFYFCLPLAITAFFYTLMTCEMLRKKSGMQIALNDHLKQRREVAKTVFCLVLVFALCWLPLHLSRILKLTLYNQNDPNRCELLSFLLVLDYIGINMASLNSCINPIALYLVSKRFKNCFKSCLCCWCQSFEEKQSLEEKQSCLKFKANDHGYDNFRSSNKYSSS", "experiment": "Western analysis to detect ETB disulfide bond formation in HPAECs", "type": "cell-based", "conditions": "aldosterone 10^−7 mol/L 24 h or H2O2 200 μmol/L 20 min", "protocol": "Western analysis to detect ETB disfulfide bond formation. Western analysis to detect ETB disulfide bond formation was performed as described previously.^7 Briefly, protein extracts from cells were lysed in alkylating buffer containing 0.1 M Tris-HCL, pH 6.8, 1% SDS, 100 mM iodoacetamide, and 100 mM N-ethylmaleimide, and sonicated on ice for 5 min followed by a 30-min incubation at 25° C. Alkylated proteins were then precipitated with acetone. Proteins were resuspended in 50 μl of 0.1 M Tris-HCl, pH 7.4, 1% SDS; and disulfides were reduced with 5 mM tris(2-carboxyethyl)phosphine hydrochloride (TCEP). Following a 20-min incubation at 25° C., TCEP was removed with a Micro Bio-Spin™ column 6 (Bio-Rad), and 1% SDS was added to the eluant. The cysteines previously participating in a disulfide bond, now reduced, were labeled with 1 mM polyethylene glycol-conjugated maleimide (molecular mass 10 kDa) (Fluka). After a 1-h incubation at 25° C., proteins were precipitated with acetone, resuspended in 50 μl of non-reducing SDS electrophoresis buffer, and boiled for 10 min. Protein samples were then size-fractionated electrophoretically using SDS-PAGE, and transferred to a polyvinylidene fluoride membrane. […]"}, "[8]": {"tested_on": "ETA, ETB, eNOS", "experiment": "ETA, ETB and eNOS protein levels in HPAECs by Western analysis", "type": "cell-based, human", "protocol": "as §1, with “anti-[…]^phox” for “anti-p22P^phox”"}, "[9]": {"conditions": "aldosterone 10^−7 mol/L, 24 h, HPAECs"}}}
{"smiles": "C[C@]12CCC(=O)C=C1CC[C@@H]1[C@@H]2[C@@H](O)C[C@]2(C=O)[C@@H](C(=O)CO)CC[C@@H]12", "note": "[aldosterone]", "values": [{"measurement": "levels of 3-nitrotyrosine", "setting": "[1]", "value": "46.8±6.6", "unit": "arb. units"}, {"measurement": "eNOS activity", "setting": "[2]", "value": "7.6±2.4 [^14C] L-citrulline c.p.m./μg protein"}, {"measurement": "total NO. metabolite (NOx: NO2^−+NO3^−) formation", "setting": "[3]; ET-1 (10 nM) stimulated HPAECs, without or with aldosterone", "value": "103.4±12.2", "unit": "μM/μg protein"}, {"measurement": "decrease in ETB-mediated NO2^− levels", "setting": "[3]; aldosterone 10^−7 mol/L, 24 h, then ET-1 10 nM, HPAECs", "value": 60.3, "unit": "%"}, {"measurement": "decrease in NO2^−/NO3^− ratio", "setting": "[3]; aldosterone in ET-1-stimulated HPAECs", "value": 62, "unit": "%"}, {"measurement": "protein levels of NOX4", "setting": "[4]; aldosterone 10^−7 mol/L", "value": "157.0±4.4", "unit": "% control"}, {"measurement": "protein levels of p22^phox", "setting": "[4]; aldosterone 10^−7 mol/L", "value": "829.5±295.6", "unit": "% control"}, {"measurement": "protein levels of NOX4", "setting": "[4]; aldosterone 10^−8 mol/L", "value": "146.3±12.4", "unit": "% control"}, {"measurement": "protein levels of p22^phox", "setting": "[4]; aldosterone 10^−8 mol/L", "value": "961±226.2", "unit": "% control"}, {"measurement": "protein levels of NOX4", "setting": "[4]; aldosterone 10^−9 mol/L", "value": "134.6±16.5", "unit": "% control"}, {"measurement": "protein levels of p22^phox", "setting": "[4]; aldosterone 10^−9 mol/L", "value": "1009.4±167.0", "unit": "% control"}, {"measurement": "H2O2 accumulation", "setting": "[5]", "value": "100.6±3.5", "unit": "μM/mg protein"}, {"measurement": "increase in ETB-SOH protein expression levels", "setting": "[6]", "value": 639, "unit": "%"}, {"measurement": "ETB disulfide bond formation (bands at 70 kDa and 90 kDa)", "setting": "[7]", "value": "de novo formation of one or two disulfide bonds"}, {"measurement": "expression of ETA", "setting": "[8]; [9]", "value": "Without influencing protein expression of ETB, or inducing"}, {"measurement": "protein expression of ETB", "setting": "[8]; [9]", "value": "Without influencing"}, {"measurement": "eNOS protein levels", "setting": "[8]; aldosterone-treated HPAECs", "value": "Without influencing"}]}
